# Measurements published in the supplement of paper PMC11451515.
# Test system: P12-Ichikawa
# Experiment: cell viability relative to DMSO control; higher = less cytotoxic
# Conditions: 48 h
# Summary of the method: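 NOMO1, SEM and P12-Ichikawa leukemia cells spent at least four passages adapting to each medium before use. They were seeded at 500 cells/well (NOMO1, SEM) or 1000 cells/well (P12-Ichikawa) in 5 μl in 1536-well plates and pin-dosed with library compounds in DMSO at 11 threefold steps from 47 μM down to 0.79 nM. After 48 h at 37°C, CellTiter-Glo One luminescence was read. Viability is reported as a percentage of the DMSO wells on each plate, with cell-free wells as background.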
# [1] = HPLM + 10% dialyzed FBS, 0.000781 µM
# [2] = HPLM + 10% dialyzed FBS, 0.00234 µM
# [3] = HPLM + 10% dialyzed FBS, 0.00702 µM
# [4] = HPLM + 10% dialyzed FBS, 0.0211 µM
# [5] = HPLM + 10% dialyzed FBS, 0.0632 µM
# [6] = HPLM + 10% dialyzed FBS, 0.19 µM
# [7] = HPLM + 10% dialyzed FBS, 0.569 µM
# [8] = HPLM + 10% dialyzed FBS, 1.71 µM
# [9] = HPLM + 10% dialyzed FBS, 5.12 µM
# [10] = HPLM + 10% dialyzed FBS, 15.4 µM
# [11] = HPLM + 10% dialyzed FBS, 46.1 µM
# [12] = RPMI 5 mM glucose + 10% FBS, 0.000781 µM
# [13] = RPMI 5 mM glucose + 10% FBS, 0.00234 µM
# [14] = RPMI 5 mM glucose + 10% FBS, 0.00702 µM
# [15] = RPMI 5 mM glucose + 10% FBS, 0.0211 µM
# [16] = RPMI 5 mM glucose + 10% FBS, 0.0632 µM
# [17] = RPMI 5 mM glucose + 10% FBS, 0.19 µM
# [18] = RPMI 5 mM glucose + 10% FBS, 0.569 µM
# [19] = RPMI 5 mM glucose + 10% FBS, 1.71 µM
# [20] = RPMI 5 mM glucose + 10% FBS, 5.12 µM
# [21] = RPMI 5 mM glucose + 10% FBS, 15.4 µM
# [22] = RPMI 5 mM glucose + 10% FBS, 46.1 µM
# [23] = RPMI 5 mM glucose + 10% dialyzed FBS, 0.000781 µM
# [24] = RPMI 5 mM glucose + 10% dialyzed FBS, 0.00234 µM
# [25] = RPMI 5 mM glucose + 10% dialyzed FBS, 0.00702 µM
# [26] = RPMI 5 mM glucose + 10% dialyzed FBS, 0.0211 µM
# [27] = RPMI 5 mM glucose + 10% dialyzed FBS, 0.0632 µM
# [28] = RPMI 5 mM glucose + 10% dialyzed FBS, 0.19 µM
# [29] = RPMI 5 mM glucose + 10% dialyzed FBS, 0.569 µM
# [30] = RPMI 5 mM glucose + 10% dialyzed FBS, 1.71 µM
# [31] = RPMI 5 mM glucose + 10% dialyzed FBS, 5.12 µM
# [32] = RPMI 5 mM glucose + 10% dialyzed FBS, 15.4 µM
# [33] = RPMI 5 mM glucose + 10% dialyzed FBS, 46.1 µM
structure (smiles),measurement,setting,value
CCc1cc(-c2n[nH]c(C)c2-c2ccc3c(c2)OCCO3)c(O)cc1O,cell viability,[1],115%
same,cell viability,[2],133%
same,cell viability,[3],119%
same,cell viability,[4],132%
same,cell viability,[5],132%
same,cell viability,[6],135%
same,cell viability,[7],131%
same,cell viability,[8],135%
same,cell viability,[9],131%
same,cell viability,[10],96.7%
same,cell viability,[11],74.7%
CC[C@H]1CN2CCc3cc(OC)c(OC)cc3[C@@H]2C[C@@H]1C[C@H]1NCCc2cc(OC)c(OC)cc21,cell viability,[1],111%
same,cell viability,[2],116%
same,cell viability,[3],108%
same,cell viability,[4],103%
same,cell viability,[5],92.5%
same,cell viability,[6],77.1%
same,cell viability,[7],39.7%
same,cell viability,[8],25.7%
same,cell viability,[9],28.8%
same,cell viability,[10],21.1%
same,cell viability,[11],16.1%
same,cell viability,[12],96.8%
same,cell viability,[13],107%
same,cell viability,[14],104%
same,cell viability,[15],102%
same,cell viability,[16],93.3%
same,cell viability,[17],69.4%
same,cell viability,[18],28.9%
same,cell viability,[19],16.6%
same,cell viability,[20],14.8%
same,cell viability,[21],13.4%
same,cell viability,[22],11.1%
same,cell viability,[23],103%
same,cell viability,[24],113%
same,cell viability,[25],109%
same,cell viability,[26],108%
same,cell viability,[27],103%
same,cell viability,[28],80.3%
same,cell viability,[29],56.5%
same,cell viability,[30],29.6%
same,cell viability,[31],19.4%
same,cell viability,[32],14.1%
same,cell viability,[33],13.6%
N#Cc1ccc(NC(=O)Nc2ccccc2Br)c2nn[nH]c12,cell viability,[1],101%
same,cell viability,[2],109%
same,cell viability,[3],109%
same,cell viability,[4],115%
same,cell viability,[5],119%
same,cell viability,[6],123%
same,cell viability,[7],122%
same,cell viability,[8],116%
same,cell viability,[9],125%
same,cell viability,[10],126%
same,cell viability,[11],79.1%
same,cell viability,[12],101%
same,cell viability,[13],109%
same,cell viability,[14],112%
same,cell viability,[15],120%
same,cell viability,[16],118%
same,cell viability,[17],134%
same,cell viability,[18],122%
same,cell viability,[19],117%
same,cell viability,[20],128%
same,cell viability,[21],127%
same,cell viability,[22],122%
same,cell viability,[23],103%
same,cell viability,[24],110%
same,cell viability,[25],111%
same,cell viability,[26],108%
same,cell viability,[27],117%
same,cell viability,[28],112%
same,cell viability,[29],123%
same,cell viability,[30],109%
same,cell viability,[31],121%
same,cell viability,[32],125%
same,cell viability,[33],95.7%
C[N+]1(C)[C@@H]2CC(OC(=O)C(O)(c3cccs3)c3cccs3)C[C@H]1[C@@H]1O[C@@H]12 (some centres not stated),cell viability,[1],98.7%
same,cell viability,[2],105%
same,cell viability,[3],109%
same,cell viability,[4],106%
same,cell viability,[5],109%
same,cell viability,[6],110%
same,cell viability,[7],109%
same,cell viability,[8],109%
same,cell viability,[9],103%
same,cell viability,[10],112%
same,cell viability,[11],102%
same,cell viability,[12],117%
same,cell viability,[13],113%
same,cell viability,[14],123%
same,cell viability,[15],111%
same,cell viability,[16],120%
same,cell viability,[17],126%
same,cell viability,[18],120%
same,cell viability,[19],116%
same,cell viability,[20],115%
same,cell viability,[21],111%
same,cell viability,[22],121%
same,cell viability,[23],105%
same,cell viability,[24],101%
same,cell viability,[25],100%
same,cell viability,[26],107%
same,cell viability,[27],105%
same,cell viability,[28],111%
same,cell viability,[29],109%
same,cell viability,[30],109%
same,cell viability,[31],111%
same,cell viability,[32],113%
same,cell viability,[33],101%
Cc1ccc(/C=N/NC(=O)c2ccccc2Oc2ccccc2)o1,cell viability,[1],95.5%
same,cell viability,[2],107%
same,cell viability,[3],91.4%
same,cell viability,[4],96.5%
same,cell viability,[5],100%
same,cell viability,[6],98.3%
same,cell viability,[7],94.6%
same,cell viability,[8],94.9%
same,cell viability,[9],89.7%
same,cell viability,[10],89.7%
same,cell viability,[11],79.4%
same,cell viability,[12],94%
same,cell viability,[13],99%
same,cell viability,[14],90.6%
same,cell viability,[15],88.5%
same,cell viability,[16],91.3%
same,cell viability,[17],90.8%
same,cell viability,[18],91.6%
same,cell viability,[19],92.2%
same,cell viability,[20],95.1%
same,cell viability,[21],85.8%
same,cell viability,[22],63.9%
same,cell viability,[23],85.2%
same,cell viability,[24],82.6%
same,cell viability,[25],87.7%
same,cell viability,[26],89.4%
same,cell viability,[27],90.3%
same,cell viability,[28],90.3%
same,cell viability,[29],88.8%
same,cell viability,[30],82.4%
same,cell viability,[31],82.3%
same,cell viability,[32],86.4%
same,cell viability,[33],78.3%
NC(CO)C(=O)NNCc1ccc(O)c(O)c1O (configuration not stated),cell viability,[1],103%
same,cell viability,[2],93.7%
same,cell viability,[3],99.7%
same,cell viability,[4],103%
same,cell viability,[5],103%
same,cell viability,[6],100%
same,cell viability,[7],87.9%
same,cell viability,[8],90.7%
same,cell viability,[9],90.9%
same,cell viability,[10],92.2%
same,cell viability,[11],54%
same,cell viability,[12],96.5%
same,cell viability,[13],100%
same,cell viability,[14],99.6%
same,cell viability,[15],91%
same,cell viability,[16],105%
same,cell viability,[17],99.5%
same,cell viability,[18],91.7%
same,cell viability,[19],92.8%
same,cell viability,[20],93.6%
same,cell viability,[21],81%
same,cell viability,[22],19.1%
same,cell viability,[23],99.9%
same,cell viability,[24],89%
same,cell viability,[25],94%
same,cell viability,[26],98.3%
same,cell viability,[27],96.5%
same,cell viability,[28],93.7%
same,cell viability,[29],88.6%
same,cell viability,[30],94.2%
same,cell viability,[31],85.3%
same,cell viability,[32],91.4%
same,cell viability,[33],26.5%
C1COC(NC(C2CC2)C2CC2)=N1,cell viability,[1],82.7%
same,cell viability,[2],92%
same,cell viability,[3],84.2%
same,cell viability,[4],94.6%
same,cell viability,[5],88.9%
same,cell viability,[6],90.7%
same,cell viability,[7],95.5%
same,cell viability,[8],85.4%
same,cell viability,[9],88.9%
same,cell viability,[10],100%
same,cell viability,[11],77.1%
same,cell viability,[12],89.2%
same,cell viability,[13],103%
same,cell viability,[14],106%
same,cell viability,[15],98.4%
same,cell viability,[16],103%
same,cell viability,[17],97.6%
same,cell viability,[18],93.8%
same,cell viability,[19],91.3%
same,cell viability,[20],94.6%
same,cell viability,[21],95.5%
same,cell viability,[22],77.7%
same,cell viability,[23],79.5%
same,cell viability,[24],80.5%
same,cell viability,[25],87.1%
same,cell viability,[26],91.6%
same,cell viability,[27],87.2%
same,cell viability,[28],82.4%
same,cell viability,[29],88.6%
same,cell viability,[30],83.4%
same,cell viability,[31],91.6%
same,cell viability,[32],89.3%
same,cell viability,[33],58.8%
Cc1cnc(Nc2ccc(N3CCN(C)CC3)cc2)nc1Nc1cccc([S+](=O)([O-])NC(C)(C)C)c1,cell viability,[1],133%
same,cell viability,[2],104%
same,cell viability,[3],109%
same,cell viability,[4],121%
same,cell viability,[5],118%
same,cell viability,[6],109%
same,cell viability,[7],103%
same,cell viability,[8],90.8%
same,cell viability,[9],88.7%
same,cell viability,[10],10.6%
same,cell viability,[11],2.36%
same,cell viability,[12],112%
same,cell viability,[13],120%
same,cell viability,[14],119%
same,cell viability,[15],120%
same,cell viability,[16],124%
same,cell viability,[17],111%
same,cell viability,[18],117%
same,cell viability,[19],91.3%
same,cell viability,[20],80.2%
same,cell viability,[21],16.2%
same,cell viability,[22],7.55%
same,cell viability,[23],108%
same,cell viability,[24],115%
same,cell viability,[25],114%
same,cell viability,[26],113%
same,cell viability,[27],106%
same,cell viability,[28],107%
same,cell viability,[29],102%
same,cell viability,[30],92.7%
same,cell viability,[31],76.6%
same,cell viability,[32],48.4%
same,cell viability,[33],4.62%
